PubChem BioAssay (NCI)
Values joined by “and” are separate entries in the source; they are usually repeats but may differ in a detail not shown here. Equal entries are not always repeated.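 Tested at 5 concentrations; 48 h exposure; 96-well plates; endpoints linearly interpolated, else capped at highest concentration. GI50 is the concentration that inhibits growth by half. TGI denotes the concentration required for complete inhibition of growth.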

System: HOP-62 NSCLC
Assay: NCI tumour cell line growth inhibition, 48 h

Structure (SMILES)	GI50 [µM]	TGI [µM]
O=C(Nc1n[nH]c2cc(-c3ccccc3)ccc12)C1CC1	> 25	> 25

System: PC-3 prostate
Assay: NCI tumour cell line growth inhibition, 48 h

Structure (SMILES)	GI50 [µM]	TGI [µM]
COc1cc(OC)c(C(=O)/C=C/c2cccc(C(F)(F)F)c2)c(OC)c1	1.64	6.05
C/C(=N\Nc1ccc(Cl)cn1)c1ccc2ccccc2n1	3.44	> 100
CN1CCc2nc(N)nc(-c3nc(N)nc4c3CN(C)CC4)c2C1		> 100
COc1c2c(cc3c1OCO3)[C@]13C=C[C@H](OC)C[C@H]1N(C2)CC3O (some centres not stated)		> 100
COc1ccc(C[N+](C)(C)N)cc1OC	> 100	> 100
COc1c(C(=O)/C=C/c2ccccc2)c(O)cc2occc12	7.01	37.9
CC(C)c1c(O)c(O)c2c(c1O)C(=O)C(O)=C1C(C)(C)CCC[C@@]12C		11.8
NS(=O)(=O)c1ccc(-c2ccc3c(NC(=O)C4CC4)n[nH]c3c2)cc1	> 25	> 25
C=CCCCCC/C=C\[C@@H](O)C#CC#C/C=C/CO	28	> 100
N#Cc1cc(-c2cc3ccccc3o2)oc1N	2.73	6.85
Cc1cc(C(=O)Nc2ccc3cc(CN4CCOCC4)ccc3n2)c(C)n1-c1ccccc1	1.34	6.69
O=S(=O)(c1ccc(NC(=S)NC23CC4CC(CC(C4)C2)C3)cc1)N1CCCCC1	2.55	8.94
CCCCCCCCCCCCCCCC(=O)OCC(C[As](=O)(O)O)OC(=O)CCCCCCCCCCCCCCC (configuration not stated)		> 100
O=C1/C(=C(/c2ccccc2)N2CCOCC2)Cc2ccccc21	1.64	6.15
CC1=CC(=O)C=CC1=O	15.7	39.4
CCCC(CCC)NCC(O)c1cc(-c2ccc(C(F)(F)F)cc2)nc(C(F)(F)F)c1 (configuration not stated)	1.75	3.33
Cc1cc(C)c(NC(=O)c2sc3nc4c(cc3c2N)C(=O)CCC4)c(C)c1	1.96	> 100
CN(C)CCNc1ccc(CO)c2oc3ccc(O)cc3c(=O)c12		29.3
Cc1ccc(NC(=O)c2cccc(C(C)(C)C#N)c2)cc1Nc1ccc2ncn(C)c(=O)c2c1	25.9	> 100
Cc1cc2ncnn2cc1Nc1ncc2c(n1)n(C1CCOCC1)c(=O)n2C	2.73	> 100
Cc1ccc(N=C/C=C(\Nc2ccc(C)cc2)c2ccc(Cl)cc2)cc1	26.8	> 100
COc1ccc(C(=O)c2cc(C)c(OC)c(C)c2)c(OC)c1O	0.0402	> 100
COCC[C@H]1CCC/C=C/[C@@H]2C[C@H](O)C[C@H]2[C@H](O)/C=C/C(=O)O1	0.193	> 100
COC(=O)Nc1nc2ccc(C3(c4ccc(F)cc4)OCCO3)cc2[nH]1	0.341	> 100
O=C(Nc1n[nH]c2cc(-c3ccccc3)ccc12)C1CC1	10.5	> 25

System: LOX IMVI melanoma
Assay: NCI tumour cell line growth inhibition, 48 h

Structure (SMILES)	GI50	TGI
COc1cc(OC)c(C(=O)/C=C/c2cccc(C(F)(F)F)c2)c(OC)c1	1.04 µM	2.42 µM
C/C(=N\Nc1ccc(Cl)cn1)c1ccc2ccccc2n1	2.02 µM	> 100 µM
CN1CCc2nc(N)nc(-c3nc(N)nc4c3CN(C)CC4)c2C1		> 100 µM
COc1c2c(cc3c1OCO3)[C@]13C=C[C@H](OC)C[C@H]1N(C2)CC3O (some centres not stated)		> 100 µM
COc1ccc(C[N+](C)(C)N)cc1OC	> 100 µM	> 100 µM
COc1c(C(=O)/C=C/c2ccccc2)c(O)cc2occc12	1.69 µM	3.31 µM
CC(C)c1c(O)c(O)c2c(c1O)C(=O)C(O)=C1C(C)(C)CCC[C@@]12C		13.8 µM
NS(=O)(=O)c1ccc(-c2ccc3c(NC(=O)C4CC4)n[nH]c3c2)cc1	> 25 µM	> 25 µM
C=CCCCCC/C=C\[C@@H](O)C#CC#C/C=C/CO	17.2 µM	32.1 µM
N#Cc1cc(-c2cc3ccccc3o2)oc1N	2.87 µM	12.5 µM
Cc1cc(C(=O)Nc2ccc3cc(CN4CCOCC4)ccc3n2)c(C)n1-c1ccccc1	1.99 µM	15.2 µM
O=S(=O)(c1ccc(NC(=S)NC23CC4CC(CC(C4)C2)C3)cc1)N1CCCCC1	3.71 µM	> 100 µM
CCCCCCCCCCCCCCCC(=O)OCC(C[As](=O)(O)O)OC(=O)CCCCCCCCCCCCCCC (configuration not stated)		> 100 µM
O=C1/C(=C(/c2ccccc2)N2CCOCC2)Cc2ccccc21	0.92 µM	2.52 µM
CC1=CC(=O)C=CC1=O	17.9 µM and 14.4 µM	42.6 µM and 28 µM
CCCC(CCC)NCC(O)c1cc(-c2ccc(C(F)(F)F)cc2)nc(C(F)(F)F)c1 (configuration not stated)	1.53 µM	2.97 µM
Cc1cc(C)c(NC(=O)c2sc3nc4c(cc3c2N)C(=O)CCC4)c(C)c1	5.39 µM	> 100 µM
CN(C)CCNc1ccc(CO)c2oc3ccc(O)cc3c(=O)c12		27 µM
Cc1ccc(NC(=O)c2cccc(C(C)(C)C#N)c2)cc1Nc1ccc2ncn(C)c(=O)c2c1	0.0585 µM	> 67.5 µM
Cc1cc2ncnn2cc1Nc1ncc2c(n1)n(C1CCOCC1)c(=O)n2C	5.92 µM	> 100 µM
Cc1ccc(N=C/C=C(\Nc2ccc(C)cc2)c2ccc(Cl)cc2)cc1	5.58 µM	> 100 µM
COc1ccc(C(=O)c2cc(C)c(OC)c(C)c2)c(OC)c1O	0.0381 µM	> 100 µM
COCC[C@H]1CCC/C=C/[C@@H]2C[C@H](O)C[C@H]2[C@H](O)/C=C/C(=O)O1	0.0434 µM	0.179 µM
COC(=O)Nc1nc2ccc(C3(c4ccc(F)cc4)OCCO3)cc2[nH]1	0.732 µM	> 100 µM
O=C(Nc1n[nH]c2cc(-c3ccccc3)ccc12)C1CC1	16 µM	> 25 µM

System: UO-31 renal
Assay: NCI tumour cell line growth inhibition, 48 h

Structure (SMILES)	GI50 [µM]	TGI [µM]
COc1cc(OC)c(C(=O)/C=C/c2cccc(C(F)(F)F)c2)c(OC)c1	1.43	5.24
C/C(=N\Nc1ccc(Cl)cn1)c1ccc2ccccc2n1	1.74	12.9
CN1CCc2nc(N)nc(-c3nc(N)nc4c3CN(C)CC4)c2C1		> 100
COc1c2c(cc3c1OCO3)[C@]13C=C[C@H](OC)C[C@H]1N(C2)CC3O (some centres not stated)		> 100
COc1ccc(C[N+](C)(C)N)cc1OC		> 100
COc1c(C(=O)/C=C/c2ccccc2)c(O)cc2occc12	3.14	11.8
CC(C)c1c(O)c(O)c2c(c1O)C(=O)C(O)=C1C(C)(C)CCC[C@@]12C		7
NS(=O)(=O)c1ccc(-c2ccc3c(NC(=O)C4CC4)n[nH]c3c2)cc1	> 25	> 25
C=CCCCCC/C=C\[C@@H](O)C#CC#C/C=C/CO	> 100	> 100
N#Cc1cc(-c2cc3ccccc3o2)oc1N	3.72	18.2
Cc1cc(C(=O)Nc2ccc3cc(CN4CCOCC4)ccc3n2)c(C)n1-c1ccccc1	2.24	33.5
O=S(=O)(c1ccc(NC(=S)NC23CC4CC(CC(C4)C2)C3)cc1)N1CCCCC1	2.82	> 100
